Reference: patent US8580811B2 (Ligand Pharmaceuticals Incorporated, priority 2005, dated 2013)
Where two headings read alike, the source gives them in different places.

Molecular target: T1, human AR (Homo sapiens, UniProt P10275)
T1 construct: expressed in transfected cells; host or cells: COS-1 cells
T1 sequence (P10275 1-920): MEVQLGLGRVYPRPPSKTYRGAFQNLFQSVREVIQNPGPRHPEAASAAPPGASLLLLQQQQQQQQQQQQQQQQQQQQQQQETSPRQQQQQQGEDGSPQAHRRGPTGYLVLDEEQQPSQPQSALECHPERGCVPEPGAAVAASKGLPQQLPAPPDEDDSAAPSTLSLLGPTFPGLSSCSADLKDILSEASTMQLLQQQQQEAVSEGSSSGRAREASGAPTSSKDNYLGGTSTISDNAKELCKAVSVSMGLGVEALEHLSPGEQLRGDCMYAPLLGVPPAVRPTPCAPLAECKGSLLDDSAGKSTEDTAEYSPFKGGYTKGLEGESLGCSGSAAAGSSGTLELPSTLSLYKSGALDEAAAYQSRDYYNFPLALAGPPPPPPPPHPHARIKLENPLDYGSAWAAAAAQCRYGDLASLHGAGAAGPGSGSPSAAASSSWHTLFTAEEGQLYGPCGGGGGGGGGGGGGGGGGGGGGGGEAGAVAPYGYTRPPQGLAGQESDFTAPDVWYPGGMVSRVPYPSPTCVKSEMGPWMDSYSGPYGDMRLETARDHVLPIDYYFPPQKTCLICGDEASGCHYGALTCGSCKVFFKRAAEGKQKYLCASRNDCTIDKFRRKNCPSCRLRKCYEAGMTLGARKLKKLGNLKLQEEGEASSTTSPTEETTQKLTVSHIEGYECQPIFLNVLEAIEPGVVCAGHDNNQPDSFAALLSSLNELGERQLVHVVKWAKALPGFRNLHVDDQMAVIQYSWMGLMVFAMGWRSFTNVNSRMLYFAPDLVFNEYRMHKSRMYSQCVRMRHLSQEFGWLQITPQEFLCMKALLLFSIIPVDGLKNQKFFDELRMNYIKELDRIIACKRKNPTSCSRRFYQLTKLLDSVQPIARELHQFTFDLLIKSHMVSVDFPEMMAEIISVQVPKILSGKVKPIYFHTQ
Experiment: IR Binding Assay: whole cell competitive binding of test compounds against 3H-DHT in COS-1 cells transfected with pRShAR
Summary of the method: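 COS-1 cells transfected with pRShAR plus β-Gal reporter, serum-starved 24 h, then exposed to 1 nM ³H-DHT with compounds at 10^−10 to 10^−6 M for 3 h at 37 °C. Bound ³H-DHT counted in lysates, normalized to β-Gal. IC50 from log-logit plot; Ki via Cheng-Prusoff using Kd from Scatchard saturation analysis.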

Structure (SMILES) | Ki (competition with 1 nM 3H-DHT, transfected COS-1 cells, 3 h at 37° C., Cheng-Prusoff from IC50, read-out: Ki) [nM] | Ki [nM]
CCc1c(-c2ccccc2)[nH]c2ccc3[nH]c(=O)cc(Cl)c3c12 [Compound 125, 9-Chloro-1-ethyl-2-phenyl-3,6-dihydro-pyrrolo[3,2-f]quinolin-7-one] | > 10 | 
CCCc1c(C)n(CC(F)(F)F)c2ccc3[nH]c(=O)cc(Cl)c3c12 [Compound 210, 9-Chloro-2-methyl-1-propyl-3-(2,2,2-trifluoroethyl)-3,6-dihydro-pyrrolo[3,2-f]quinolin-7-one] |  | < 5
Cc1c(C)n(CCCO)c2ccc3[nH]c(=O)cc(C(F)(F)F)c3c12 [Compound 249, 1,2-Dimethyl-3-(3-hydroxypropyl)-9-trifluoromethyl-3,6-dihydro-pyrrolo[3,2-f]quinolin-7-one] |  | < 5
Cc1c(C)n(CCC(F)(F)F)c2ccc3[nH]c(=O)cc(C(F)(F)F)c3c12 [Compound 221, 1,2-Dimethyl-9-trifluoromethyl-3-(3,3,3-trifluoropropyl)-3,6-dihydro-pyrrolo[3,2-f]-quinolin-7-one] |  | < 5
Cc1c(-c2cccnc2)n(CC(F)(F)F)c2ccc3[nH]c(=O)cc(Cl)c3c12 [Compound 253, 9-Chloro-1-methyl-2-(3-pyridyl)-3-(2,2,2-trifluoroethyl)-3,6-dihydro-pyrrolo[3,2-f]-quinolin-7-one] |  | > 10
Cc1c(-c2ccncc2)n(C[C@@H](O)C(F)(F)F)c2ccc3[nH]c(=O)cc(Cl)c3c12 [Compound 283, (R)-9-Chloro-1-methyl-2-(4-pyridyl)-3-(3,3,3-trifluoro-2-hydroxy-propyl)-3,6-dihydro-pyrrolo[3,2-f]quinolin-7-one] |  | 5 to 10
Cc1c(-c2cccs2)n(CC(F)(F)C(F)(F)F)c2ccc3[nH]c(=O)cc(Cl)c3c12 [Compound 259, 9-Chloro-1-methyl-3-(2,2,3,3,3-pentafluoropropyl)-2-thiophen-2-yl-3,6-dihydro-pyrrolo[3,2-f]quinolin-7-one] |  | > 10
CCn1c(C)c(C)c2c3c(Cl)cc(=O)[nH]c3ccc21 [Compound 196, 9-Chloro-1,2-dimethyl-3-ethyl-3,6-dihydro-pyrrolo[3,2-f]quinolin-7-one] |  | < 5
CC1c2c(ccc3[nH]c(=O)cc(Cl)c23)N(CC(F)(F)F)C1c1ccc(F)cc1 (racemic) [Compound 149, (±)-9-Chloro-2-(4-fluoro-phenyl)-1-methyl-3-(2,2,2-trifluoroethyl)-1,2,3,6-tetrahydro-pyrrolo[3,2-f]quinolin-7-one] |  | 5 to 10
Cc1c(-c2nccs2)n(C[C@H](O)C(F)(F)F)c2ccc3[nH]c(=O)cc(Cl)c3c12 [Compound 276, (S)-9-Chloro-1-methyl-2-(1,3-thiazol-2-yl)-3-(3,3,3-trifluoro-2-hydroxy-propyl)-3,6-dihydro-pyrrolo[3,2-f]quinolin-7-one] |  | > 10
Cc1c(-c2ccccc2)n(C[C@H](O)C(F)(F)F)c2ccc3[nH]c(=O)cc(Cl)c3c12 [Compound 271, (S)-9-Chloro-1-methyl-2-phenyl-3-(3,3,3-trifluoro-2-hydroxy-propyl)-3,6-dihydro-pyrrolo[3,2-f]quinolin-7-one] |  | < 5
Cc1ccc(-c2c(C)c3c4c(Cl)cc(=O)[nH]c4ccc3n2C[C@@H](O)C(F)(F)F)s1 [Compound 285, (R)-9-Chloro-1-methyl-2-(5-methylthiophen-2-yl)-3-(3,3,3-trifluoro-2-hydroxy-propyl)-3,6-dihydro-pyrrolo[3,2-f]quinolin-7-one] |  | < 5
Cc1c(C)n(C[C@@H](O)C(F)(F)F)c2ccc3[nH]c(=O)cc(C(F)(F)F)c3c12 [Compound 244, (+)-1,2-Dimethyl-3-(3,3,3-trifluoro-2-hydroxy-propyl)-9-trifluoromethyl-3,6-dihydro-pyrrolo[3,2-f]-quinolin-7-one] |  | > 10
CC1c2c(ccc3[nH]c(=O)cc(Cl)c23)N(CC(F)(F)F)C1c1cccc(C(F)(F)F)c1 (racemic) [Compound 159, (±)-9-Chloro-1-methyl-3-(2,2,2-trifluoroethyl)-2-(3-trifluoromethylphenyl)-1,2,3,6-tetrahydropyrrolo[3,2-f]quinolin-7-one] |  | > 10
CCC1C(C)c2c(ccc3[nH]c(=O)cc(Cl)c23)N1CC(F)(F)Cl (racemic) [Compound 176, (±)-9-Chloro-3-(2-Chloro-2,2-difluoroethyl)-2-ethyl-1-methyl-1,2,3,6-tetrahydro-pyrrolo[3,2-f]quinolin-7-one] |  | < 5
Cc1c(C)n(CCC(F)(F)F)c2ccc3[nH]c(=O)cc(Cl)c3c12 [Compound 213, 9-Chloro-1,2-dimethyl-3-(3,3,3-trifluoropropyl)-3,6-dihydro-pyrrolo[3,2-f]quinolin-7-one] |  | < 5

Structure (SMILES) | Ki (competition with 1 nM 3H-DHT, transfected COS-1 cells, 3 h at 37° C., Cheng-Prusoff from IC50, read-out: Ki) [nM] | Ki [nM]
CCn1cc(C)c2c3c(Cl)cc(=O)[nH]c3ccc21 [Compound 193, 9-Chloro-3-ethyl-1-methyl-3,6-dihydro-pyrrolo[3,2-f]quinolin-7-one] |  | 5 to 10
Cc1ccc(-c2c(C)c3c4c(Cl)cc(=O)[nH]c4ccc3n2CC(F)(F)F)cc1 [Compound 204, 9-Chloro-1-methyl-2-(4-methylphenyl)-3-(2,2,2-trifluoroethyl)-3,6-dihydro-pyrrolo[3,2-f]-quinolin-7-one] |  | < 5
CCc1c(C)c2c3c(C(F)(F)F)cc(=O)[nH]c3ccc2n1CCCO [Compound 286] |  | < 5
CC1c2c(ccc3[nH]c(=O)cc(Cl)c23)N(CCC(F)(F)F)C1C (racemic) [Compound 145, (±)-9-Chloro-1,2-dimethyl-3-(3,3,3-trifluoropropyl)-1,2,3,6-tetrahydro-pyrrolo[3,2-f]-quinolin-7-one] |  | < 5
Cc1c(-c2cccnc2)n(C[C@H](O)C(F)(F)F)c2ccc3[nH]c(=O)cc(Cl)c3c12 [Compound 274, (S)-9-Chloro-1-methyl-2-(3-pyridyl)-3-(3,3,3-trifluoro-2-hydroxy-propyl)-3,6-dihydro-pyrrolo[3,2-f]quinolin-7-one] |  | > 10
CC1c2c(ccc3[nH]c(=O)cc(Cl)c23)N(CC(F)(F)F)C1c1cc(C(F)(F)F)cc(C(F)(F)F)c1 (racemic) [Compound 158, (±)-9-Chloro-2-(3,5-bis(trifluoromethyl)phenyl)-1-methyl-3-(2,2,2-trifluoroethyl)-1,2,3,6-tetrahydropyrrolo[3,2-f]quinolin-7-one] |  | < 5
Cc1c(C)n(CC(F)(F)C(F)(F)F)c2ccc3[nH]c(=O)cc(C(F)(F)F)c3c12 [Compound 219, 1,2-Dimethyl-3-(2,2,3,3,3-pentafluoropropyl)-9-trifluoromethyl-3,6-dihydro-pyrrolo[3,2-f]-quinolin-7-one] |  | < 5
Cc1c(C)n(CCCF)c2ccc3[nH]c(=O)cc(C(F)(F)F)c3c12 [Compound 248, 1,2-Dimethyl-3-(3-fluoropropyl)-9-trifluoromethyl-3,6-dihydro-pyrrolo[3,2-f]quinolin-7-one] |  | < 5
CCc1c(C)c2c3c(C(F)(F)F)cc(=O)[nH]c3ccc2n1CCC(F)(F)F [Compound 226, 2-Ethyl-1-methyl-9-trifluoromethyl-3-(3,3,3-trifluoropropyl)-3,6-dihydro-pyrrolo[3,2-f]-quinolin-7-one] |  | < 5
CCc1[nH]c2ccc3[nH]c(=O)cc(Cl)c3c2c1C [Compound 106, 9-Chloro-2-ethyl-1-methyl-3,6-dihydro-pyrrolo[3,2-f]quinolin-7-one] |  | 5 to 10
Cc1c(-c2ccco2)n(CC(F)(F)C(F)(F)F)c2ccc3[nH]c(=O)cc(Cl)c3c12 [Compound 261, 9-Chloro-1-methyl-2-(2-furyl)-3-(2,2,3,3,3-pentafluoropropyl)-3,6-dihydro-pyrrolo[3,2-f]quinolin-7-one] |  | < 5
Cc1c(C)n(CCCBr)c2ccc3[nH]c(=O)cc(C(F)(F)F)c3c12 [Compound 288, 3-(3-Bromopropyl)-1,2-dimethyl-9-trifluoromethyl-3,6-dihydro-pyrrolo[3,2-f]-quinolin-7-one] |  | < 5
O=c1cc(Cl)c2c(ccc3[nH]c4c(c32)CCC4)[nH]1 [Compound 107, 9-Chloro-1,2-trimethylene-3,6-dihydro-pyrrolo[3,2-f]quinolin-7-one] |  | > 10
Cc1c(CCCCl)c2c3c(Cl)cc(=O)[nH]c3ccc2n1CC(F)(F)C(F)(F)F [Compound 269, 9-Chloro-1-(3-chloropropyl)-2-methyl-3-(2,2,3,3,3-pentafluoropropyl)-3,6-dihydro-pyrrolo[3,2-f]quinolin-7-one] |  | > 10
CCC1C(C)c2c(ccc3[nH]c(=O)cc(Cl)c23)N1CCC(F)(F)F (racemic) [Compound 170, (±)-9-Chloro-2-ethyl-1-methyl-3-(3,3,3-trifluoropropyl)-1,2,3,6-tetrahydro-pyrrolo[3,2-f]quinolin-7-one] |  | < 5
